Laboratory results taken from patent US20140018350A1, “COMBINATION OF SULFONAMIDE COMPOUND AND TAFLUPROST” (priority 2012, published 2014).

Assay: Intraocular pressure lowering effect in monkeys with normal intraocular pressure after instillation
Assay type: in vivo, Cynomolgus monkey
Settings: male cynomolgus monkeys with normal intraocular pressure, six per group, 20 μL instillation into one eye, 0.0006 w/v % present compound solution and/or Taflotan 0.0015%
Excerpt: In order to study the usefulness of a combination of the present compound with tafluprost, an intraocular pressure lowering effect when the present compound and tafluprost were concomitantly administered to experimental animals (monkeys with normal intraocular pressure) was examined.
An intraocular pressure lowering effect when the present compound and tafluprost were concomitantly administered was examined. As comparison subjects, intraocular pressure lowering effects when the present compound or tafluprost was administered singly were also examined. As a control, the base and physiological saline were administered.
Present compound solution: a 0.0006 w/v % present compound solution (instillation amount: 20 μL) […]
(2) Intraocular pressure was measured immediately before administering the test compound solution, and the measured intraocular pressure was defined as initial intraocular pressure. […]
(4) At 2, 4, 6 and 8 hours after instilling the present compound solution, one drop of the 0.4% oxybuprocaine hydrochloride eye drop was instilled into the eyes for which intraocular pressure was to be measured to effect local anesthesia, and then, intraocular pressure was measured. The intraocular pressure was measured in triplicate for each eye to obtain an average of three measurements, which is shown as the result. […]

| Compound | Intraocular pressure lowering degree (change relative to average of control group) at 6 hours after instillation [mmHg] |
| --- | --- |
| CC(C)OC(=O)CNc1cccc(CN(Cc2ccc(-n3cccn3)cc2)S(=O)(=O)c2cccnc2)n1 [Present compound, isopropyl(6-{[4-(pyrazol-1-yl)benzyl](pyridin-3-ylsulfonyl)aminomethyl}pyridin-2-ylamino)acetate] | 2.6 |
| CC(C)OC(=O)CCC/C=C\C[C@@H]1[C@@H](/C=C/C(F)(F)COc2ccccc2)[C@H](O)C[C@@H]1O [tafluprost, 1-methylethyl (5Z)-7-{(1R,2R,3R,5S)-2-[(1E)-3,3-difluoro-4-phenoxy-1-butenyl]-3,5-dihydroxycyclopentyl}-5-heptenoate] | 1.9 |
